Read-outs that look alike come from different tables or passages of the source.
Assays:
K562 cells = conditions: cited from earlier work
AML cell lines = conditions: cited from earlier work
cytochrome P450 2C8 = cytochrome P450 2C8 (Homo sapiens, UniProt P10632); conditions: cited from earlier work
HL-60 myeloid cells = conditions: cited from earlier work
cytochrome P450 2C19 = cytochrome P450 2C19 (Homo sapiens, UniProt P33261); conditions: by oxidation; cited from earlier work
VCAM-1 = conditions: cited from earlier work
[1] = system: malignant cell lines, particularly AML cell lines (MV 4-11, myeloid cell lines); assay: viability of cancer cell lines after meisoindigo treatment; type: cell-based; conditions: 0.1-100 μM, 24 and 48 hours
Description: Viability at 48 hours is shown by (♦); viability at 24 hours is shown by (▪).

[2] = system: Walker 256 carcino-sarcoma; conditions: in vivo; cited from earlier work
VEGF = conditions: cited from earlier work
HUVEC [3] = conditions: cited from earlier work
AML NOD/SCID model = conditions: in vivo; cited from earlier work
HL-60 cells = conditions: cited from earlier work
U937 = conditions: AML; cited from earlier work
[4] = system: uridine glucuronyltransferases (UGT); conditions: direct conjugation without initial cytochrome P450 oxidation, more polar metabolites; cited from earlier work
dogs = conditions: 10 mg/kg/d p.o. for 6 months; cited from earlier work
[5] = system: chronic myelogenous leukemia (CML) patients; conditions: cited from earlier work
[6] = system: HT-29 colorectal cell lines; conditions: cited from earlier work
[7] = system: human myeloblastic leukemic cells; conditions: cited from earlier work
[8] = target: glycogen synthase kinase-3β (GSK-3β) (Homo sapiens, UniProt P49841); conditions: cited from earlier work
[9] = Chromabs; cited from earlier work
[10] = system: HT-29 colorectal xenografts; conditions: in vivo; cited from earlier work
ECV304 [11] = conditions: cited from earlier work
[12] = Ames; cited from earlier work
Jurkat cells = conditions: inducing phosphorylation of c-Myb; cited from earlier work
cytochrome P450 1A2 [13] = target: T1, cytochrome P450 1A2 (Homo sapiens, UniProt P05177); conditions: by oxidation; cited from earlier work
primary AML cells = conditions: cited from earlier work
patients = conditions: cited from earlier work
HL-60 = conditions: AML; cited from earlier work
STK25 = target: T2, STK25 (Homo sapiens, UniProt O00506); assay: competition binding kinase scan; conditions: FIGS. 4 and 6
T2 construct: DNA tag / T7 phage fusion; made in house; host or cells: T7 phage in E. coli (BL21-derived) or HEK-293
Description: (§1) The scanning procedure is based on a competition binding assay that quantitatively measures the ability of a compound to compete with an immobilized, active-site directed ligand. The assay is performed by combining three components: DNA-tagged kinase; immobilized ligand; and a test compound. The ability of the test compound to compete with the immobilized ligand is measured via quantitative PCR of the DNA tag. This procedure is described in T. A. Carter et al., “Inhibition of Drug-Resistant Mutants of ABL, KIT, and EGF Receptor Kinases,” Proc. Natl. Acad. Sci. USA 102: 11011-11016 (2005), incorporated herein by this reference.
(§2) Kinase assays were carried out as follows: For most assays, kinase-tagged T7 phage strains were grown in parallel in 24-well blocks in an Escherichia coli host derived from the BL21 strain. E. coli were grown to log-phase and infected with T7 phage from a frozen stock (multiplicity of infection=0.4) and incubated with shaking at 32° C. until lysis (90-150 minutes). The lysates were centrifuged (6,000×g) and filtered (0.2 μm) to remove cell debris. The remaining kinases were produced in HEK-293 cells and subsequently tagged with DNA for qPCR detection. Streptavidin-coated magnetic beads were treated with biotinylated small molecule ligands for 30 minutes at room temperature to generate affinity resins for kinase assays. The liganded beads were blocked with excess biotin and washed with blocking buffer (SeaBlock (Pierce), 1% BSA, 0.05% Tween 20, 1 mM DTT) to remove unbound ligand and to reduce nonspecific phage binding. Binding reactions were assembled by combining kinases, liganded affinity beads, and test compounds in 1× binding buffer (20% SeaBlock, 0.17×PBS, 0.05% Tween 20, 6 mM DTT). Test compounds were prepared as 40×stocks in 100% DMSO and directly diluted into the assay. All reactions were performed in polypropylene 384-well plates in a final volume of 0.04 mL. The assay plates were incubated at room temperature with shaking for 1 hour and the affinity beads were washed with wash buffer (1×PBS, 0.05% Tween 20). The beads were then re-suspended in elution buffer (1×PBS, 0.05% Tween 20, 0.5 μM non-biotinylated affinity ligand) and incubated at room temperature with shaking for 30 minutes. The kinase concentration in the eluates was measured by qPCR.
(§3) The compounds were screened at the requested concentrations, and results for primary screen binding interactions were reported as “% Ctrl,” where lower numbers indicate stronger hits (i.e., an increased degree of inhibition of kinase activity) as follows (Equation (1)): […]

NEK9 = target: T3, NEK9 (Homo sapiens, UniProt Q8TD19); assay: competition binding kinase scan
T3 construct: DNA tag / T7 phage fusion; made in house; host or cells: T7 phage in E. coli (BL21-derived) or HEK-293
Description: as §1, §2, §3

ERBB3 = target: T4, ERBB3 (Homo sapiens, UniProt P21860); assay: competition binding kinase scan; conditions: FIGS. 4 and 6
T4 construct: DNA tag / T7 phage fusion; made in house; host or cells: T7 phage in E. coli (BL21-derived) or HEK-293
Description: as §1, §2, §3

W256 cells = conditions: cited from earlier work
rats = conditions: up to 400 mg/kg/d p.o. for 30 days; cited from earlier work
K562 = conditions: CML; cited from earlier work
Lewis lung sarcoma = conditions: in vivo; cited from earlier work
NB4 = conditions: AML; cited from earlier work
primary AML = conditions: cited from earlier work
ECV304 [14] = conditions: cited from earlier work; remark: listed apart in the source
AML cells = conditions: DKO insensitive to chemotherapy; cited from earlier work
HT29 = conditions: colorectal cancer; cited from earlier work
HUVEC [15] = conditions: cited from earlier work; remark: listed apart in the source
murine cancer models = conditions: mouse, in vivo; cited from earlier work
cytochrome P450 1A2 [16] = target: T1, cytochrome P450 1A2; conditions: cited from earlier work
[17] = system: hepatic cytochrome P450 (CYP); conditions: hepatic CYP-mediated; cited from earlier work

T1 sequence (P05177 whole entry, species assumed): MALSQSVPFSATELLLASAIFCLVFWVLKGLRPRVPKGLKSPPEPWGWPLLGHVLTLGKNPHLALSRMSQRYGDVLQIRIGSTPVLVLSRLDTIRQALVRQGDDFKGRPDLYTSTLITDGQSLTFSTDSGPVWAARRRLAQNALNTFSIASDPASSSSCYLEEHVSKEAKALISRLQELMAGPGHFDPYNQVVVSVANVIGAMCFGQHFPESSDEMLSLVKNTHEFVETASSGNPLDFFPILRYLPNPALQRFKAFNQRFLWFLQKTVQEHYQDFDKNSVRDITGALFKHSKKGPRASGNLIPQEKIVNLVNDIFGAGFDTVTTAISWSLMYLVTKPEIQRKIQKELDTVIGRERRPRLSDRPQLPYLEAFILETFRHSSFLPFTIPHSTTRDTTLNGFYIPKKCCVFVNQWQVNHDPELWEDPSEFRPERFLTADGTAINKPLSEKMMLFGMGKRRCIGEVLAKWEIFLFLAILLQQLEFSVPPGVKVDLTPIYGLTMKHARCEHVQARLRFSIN
T3 sequence (Q8TD19 whole entry, the tested form may be a part): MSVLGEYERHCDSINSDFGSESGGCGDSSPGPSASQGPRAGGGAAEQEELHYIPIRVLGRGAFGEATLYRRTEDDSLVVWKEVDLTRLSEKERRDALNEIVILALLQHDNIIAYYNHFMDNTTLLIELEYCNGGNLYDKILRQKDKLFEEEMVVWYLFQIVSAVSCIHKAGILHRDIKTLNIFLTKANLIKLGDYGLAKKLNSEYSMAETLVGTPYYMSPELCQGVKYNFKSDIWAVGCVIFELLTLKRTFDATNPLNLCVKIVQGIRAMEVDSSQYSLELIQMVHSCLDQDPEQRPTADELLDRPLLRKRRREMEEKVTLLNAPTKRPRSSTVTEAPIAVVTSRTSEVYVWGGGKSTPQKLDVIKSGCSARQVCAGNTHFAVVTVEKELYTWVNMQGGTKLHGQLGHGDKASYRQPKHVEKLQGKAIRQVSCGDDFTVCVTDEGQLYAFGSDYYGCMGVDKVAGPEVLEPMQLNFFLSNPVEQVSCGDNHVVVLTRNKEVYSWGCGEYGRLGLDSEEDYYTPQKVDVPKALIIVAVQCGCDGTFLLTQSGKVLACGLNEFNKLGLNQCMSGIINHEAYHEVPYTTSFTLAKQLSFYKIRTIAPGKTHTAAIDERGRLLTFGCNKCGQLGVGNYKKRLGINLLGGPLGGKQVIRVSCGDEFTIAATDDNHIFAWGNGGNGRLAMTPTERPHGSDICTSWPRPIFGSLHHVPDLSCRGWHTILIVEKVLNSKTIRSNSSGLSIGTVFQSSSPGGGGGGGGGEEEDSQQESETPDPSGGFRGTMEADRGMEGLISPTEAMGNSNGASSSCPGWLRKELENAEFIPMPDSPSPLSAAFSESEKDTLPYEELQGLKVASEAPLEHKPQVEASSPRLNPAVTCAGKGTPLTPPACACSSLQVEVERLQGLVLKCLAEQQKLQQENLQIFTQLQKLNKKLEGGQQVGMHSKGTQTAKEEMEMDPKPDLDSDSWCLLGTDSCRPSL
Sequence of cytochrome P450 2C19 (P33261 whole entry): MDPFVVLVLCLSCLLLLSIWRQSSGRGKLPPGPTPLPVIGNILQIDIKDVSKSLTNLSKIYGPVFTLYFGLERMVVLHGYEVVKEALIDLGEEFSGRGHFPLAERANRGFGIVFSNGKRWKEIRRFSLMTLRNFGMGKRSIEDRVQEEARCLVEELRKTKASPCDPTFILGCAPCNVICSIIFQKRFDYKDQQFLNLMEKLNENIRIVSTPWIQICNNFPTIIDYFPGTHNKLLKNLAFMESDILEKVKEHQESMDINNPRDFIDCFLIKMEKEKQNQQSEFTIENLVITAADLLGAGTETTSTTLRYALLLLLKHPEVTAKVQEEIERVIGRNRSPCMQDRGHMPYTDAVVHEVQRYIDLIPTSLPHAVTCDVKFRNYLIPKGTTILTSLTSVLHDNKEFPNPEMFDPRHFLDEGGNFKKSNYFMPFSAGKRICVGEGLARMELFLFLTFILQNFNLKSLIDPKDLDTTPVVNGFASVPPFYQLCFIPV
T2 sequence (O00506 whole entry, the tested form may be a part): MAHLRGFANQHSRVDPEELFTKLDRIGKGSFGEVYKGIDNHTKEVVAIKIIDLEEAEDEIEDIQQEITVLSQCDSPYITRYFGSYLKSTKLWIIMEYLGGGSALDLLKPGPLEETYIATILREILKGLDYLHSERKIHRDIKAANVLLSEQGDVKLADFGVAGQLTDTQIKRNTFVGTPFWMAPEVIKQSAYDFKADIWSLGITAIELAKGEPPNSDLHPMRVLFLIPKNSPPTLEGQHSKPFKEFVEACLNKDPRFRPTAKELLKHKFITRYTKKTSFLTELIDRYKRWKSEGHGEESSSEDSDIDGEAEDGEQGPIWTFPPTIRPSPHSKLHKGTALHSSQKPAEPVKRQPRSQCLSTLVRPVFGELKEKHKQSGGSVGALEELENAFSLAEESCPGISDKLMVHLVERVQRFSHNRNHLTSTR
Sequence of glycogen synthase kinase-3β (GSK-3β) (P49841 whole entry, species assumed): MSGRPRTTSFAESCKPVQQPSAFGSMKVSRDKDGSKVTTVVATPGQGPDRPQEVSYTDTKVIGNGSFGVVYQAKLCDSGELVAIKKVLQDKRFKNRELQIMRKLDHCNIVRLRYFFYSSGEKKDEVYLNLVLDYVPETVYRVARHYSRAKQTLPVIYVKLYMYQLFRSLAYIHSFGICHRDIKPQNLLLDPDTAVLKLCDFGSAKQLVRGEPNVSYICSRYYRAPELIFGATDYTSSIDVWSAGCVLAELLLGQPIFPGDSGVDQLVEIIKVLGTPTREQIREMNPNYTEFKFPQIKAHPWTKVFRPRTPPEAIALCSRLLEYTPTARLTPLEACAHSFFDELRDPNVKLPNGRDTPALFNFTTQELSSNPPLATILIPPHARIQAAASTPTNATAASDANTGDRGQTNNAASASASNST
T4 sequence (P21860 20-1342): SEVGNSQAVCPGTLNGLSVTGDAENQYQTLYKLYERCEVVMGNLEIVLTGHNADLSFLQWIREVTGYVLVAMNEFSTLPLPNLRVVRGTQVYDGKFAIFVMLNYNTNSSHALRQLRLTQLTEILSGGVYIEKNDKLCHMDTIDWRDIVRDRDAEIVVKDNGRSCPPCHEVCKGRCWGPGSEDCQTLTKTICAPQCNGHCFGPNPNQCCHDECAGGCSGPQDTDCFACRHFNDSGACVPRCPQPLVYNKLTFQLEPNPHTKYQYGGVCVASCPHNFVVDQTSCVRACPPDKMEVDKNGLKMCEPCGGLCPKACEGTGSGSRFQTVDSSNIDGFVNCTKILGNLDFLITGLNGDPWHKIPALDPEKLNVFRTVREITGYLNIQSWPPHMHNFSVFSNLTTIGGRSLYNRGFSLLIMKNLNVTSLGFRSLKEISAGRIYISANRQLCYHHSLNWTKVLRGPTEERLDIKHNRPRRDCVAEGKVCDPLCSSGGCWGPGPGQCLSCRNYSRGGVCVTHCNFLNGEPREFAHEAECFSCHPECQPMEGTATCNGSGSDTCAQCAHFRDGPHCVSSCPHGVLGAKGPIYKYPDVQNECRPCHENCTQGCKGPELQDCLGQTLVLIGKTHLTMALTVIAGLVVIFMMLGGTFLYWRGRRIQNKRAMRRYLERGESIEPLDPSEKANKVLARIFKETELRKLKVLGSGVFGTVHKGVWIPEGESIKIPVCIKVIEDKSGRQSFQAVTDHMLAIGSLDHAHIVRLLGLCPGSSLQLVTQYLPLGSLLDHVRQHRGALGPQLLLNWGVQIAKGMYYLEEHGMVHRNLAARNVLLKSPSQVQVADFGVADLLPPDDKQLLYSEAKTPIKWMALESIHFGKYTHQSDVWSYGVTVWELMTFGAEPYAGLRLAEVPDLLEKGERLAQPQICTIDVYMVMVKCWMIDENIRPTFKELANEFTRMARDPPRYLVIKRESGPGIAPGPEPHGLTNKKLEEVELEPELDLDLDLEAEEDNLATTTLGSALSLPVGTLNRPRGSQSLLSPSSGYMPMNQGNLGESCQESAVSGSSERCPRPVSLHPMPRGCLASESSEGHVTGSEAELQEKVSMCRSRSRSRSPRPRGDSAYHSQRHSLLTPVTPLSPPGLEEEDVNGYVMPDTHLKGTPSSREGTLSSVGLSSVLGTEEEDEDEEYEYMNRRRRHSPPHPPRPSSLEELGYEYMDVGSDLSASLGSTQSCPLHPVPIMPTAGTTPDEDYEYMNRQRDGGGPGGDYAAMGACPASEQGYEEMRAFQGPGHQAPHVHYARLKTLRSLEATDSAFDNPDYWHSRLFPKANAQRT
Sequence of cytochrome P450 2C8 (P10632 whole entry): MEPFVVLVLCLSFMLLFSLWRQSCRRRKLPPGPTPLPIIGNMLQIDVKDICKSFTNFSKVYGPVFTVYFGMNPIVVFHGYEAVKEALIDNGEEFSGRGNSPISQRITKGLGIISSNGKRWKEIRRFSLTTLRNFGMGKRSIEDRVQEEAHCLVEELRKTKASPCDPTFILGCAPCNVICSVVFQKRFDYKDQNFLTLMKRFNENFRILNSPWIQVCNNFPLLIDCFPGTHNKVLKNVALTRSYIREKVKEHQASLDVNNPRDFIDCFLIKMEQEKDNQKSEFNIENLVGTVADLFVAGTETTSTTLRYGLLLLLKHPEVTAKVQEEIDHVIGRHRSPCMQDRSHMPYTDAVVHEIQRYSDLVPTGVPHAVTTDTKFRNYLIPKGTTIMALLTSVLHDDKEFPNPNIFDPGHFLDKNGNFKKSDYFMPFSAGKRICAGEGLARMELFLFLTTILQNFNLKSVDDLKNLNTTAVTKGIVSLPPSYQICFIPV

CN1C(=O)/C(=C2/C(=O)Nc3ccccc32)c2ccccc21 [Meisoindigo, 3-(1,2-dihydro-2-oxo-3H-indol-3-ylidene)-1,3-dihydro-1-methyl-2H-indol-2-one]
mechanism of apoptosis (K562 cells): novel caspase-dependent pathway
cell cycle specific effect (AML cell lines): arrest in G(O)/G1
inhibition of enzyme, concentration (cytochrome P450 2C8): low micromolar concentrations
cleavage of pro-caspase 3, 8, 9 and PARP (HL-60 myeloid cells): stimulates the cleavage
metabolism by enzyme (cytochrome P450 2C19): metabolized
VCAM-1 (VCAM-1): decreased
killing of malignant cell lines (viability) [1]: effective in killing
efficacy in model [2]: effective
VEGF protection (VEGF): decreased
tubule formulation (HUVEC [3]): decreased
spleen size (AML NOD/SCID model): dose-dependent spleen size reduction
c-myc (HL-60 cells): decreases
β-catenin (HL-60 cells): decreases
activity against cells (U937): activity
metabolism by enzyme [4]: metabolized
tolerability (dogs): well tolerated
complete hematologic response, patients ([5]; 50-200 mg/d p.o.): 33%
partial hematologic response, patients ([5]; 50-200 mg/d p.o.): 58%
reduction of leukocyte count, median ([5]; 50-200 mg/d p.o.): 31 days
reduction of splenomegaly, median ([5]; 50-200 mg/d p.o.): 25 days
effect of combination with hydroxyurea ([5]; with hydroxyurea): synergistic effect
cell cycle specific effect [6]: G2/M arrest
c-myb gene expression [7]: downregulation
differentiation [7]: promotes differentiation
concentration at which GSK-3β is inhibited [8]: 5 to 50 nM
genotoxicity [9]: not genotoxic
efficacy in model [10]: effective
activity against cells (ECV304 [11]): activity
genotoxicity [12]: not genotoxic
Ahi-1 (Jurkat cells): upregulation
metabolism by enzyme (cytochrome P450 1A2 [13]): metabolized
Bcl-2 (primary AML cells): downregulation
p21 (primary AML cells): upregulation
p27 (primary AML cells): upregulation
cardiac, hepatic, or renal adverse effects (patients; patients): no cardiac, hepatic, or renal adverse effects
mild nausea and vomiting (patients; patients, spontaneously disappeared in two weeks): 30%
tolerability (patients; several patient populations, single agent or in combination with chemotherapy): well tolerated
activity against cells (HL-60): activity
binding to kinase (STK25): significant binding
kinase inhibition in screen (NEK9; FIG. 6): significant inhibition
binding to kinase (NEK9; FIGS. 4 and 6): strongest binding
binding to kinase (ERBB3): significant binding
DNA and RNA synthesis (W256 cells): inhibition
tolerability (rats): well tolerated
activity against cells (K562): activity
efficacy in model (Lewis lung sarcoma): effective
activity against cells (NB4): activity
activity against cells (primary AML): activity
apoptosis (ECV304 [14]): apoptosis
Bak (AML cells): upregulation
Bax (AML cells): upregulation
activity against cells (HT29): activity
activity against cells (HUVEC [15]): activity
efficacy in model (murine cancer models): effective
inhibition of enzyme, concentration (cytochrome P450 1A2 [16]): low micromolar concentrations
metabolic routes [17]: N-demethylation and mono ring hydroxylation

— patent publication US10383847B2 (priority 2012, dated 2019)
